Assay results as given in US7838005B2, “Treatment of insulin resistance by administering an acid-sensing ion channel 3 inhibitor” (priority 2007, dated 2010).

Tests used:
WAT-expressed ASIC3 = target: T1, WAT-expressed ASIC3 (Mus musculus, UniProt Q6X1Y6); assay: Whole-cell patch recording of acid-evoked currents in cultured SVF adipose cells; format: cell-based; conditions: pH 5.0 evoked currents, SVF adipose cells from mice 8 to 10 weeks old, voltage-clamp
T1 construct: Whole cell recordings were made of primary culture adipose cells; endogenous in cells; host or cells: primary stromal-vascular fraction (SVF) adipose cells from periovarian white adipose tissue of female mice
T1 sequence (Q6X1Y6 1-530): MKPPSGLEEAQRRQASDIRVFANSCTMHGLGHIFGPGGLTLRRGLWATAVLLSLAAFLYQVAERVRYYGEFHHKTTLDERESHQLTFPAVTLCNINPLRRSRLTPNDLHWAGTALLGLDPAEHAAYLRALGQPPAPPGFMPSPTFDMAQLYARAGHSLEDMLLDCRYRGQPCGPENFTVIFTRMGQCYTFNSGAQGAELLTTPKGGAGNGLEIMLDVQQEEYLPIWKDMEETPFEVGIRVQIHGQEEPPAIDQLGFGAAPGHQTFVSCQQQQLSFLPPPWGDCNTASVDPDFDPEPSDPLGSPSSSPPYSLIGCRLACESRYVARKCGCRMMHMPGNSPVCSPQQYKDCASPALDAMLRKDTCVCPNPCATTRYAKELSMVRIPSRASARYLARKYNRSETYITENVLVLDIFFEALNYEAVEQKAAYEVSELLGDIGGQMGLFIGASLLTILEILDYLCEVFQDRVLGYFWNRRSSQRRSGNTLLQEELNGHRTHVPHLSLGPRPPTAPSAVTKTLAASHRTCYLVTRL
Procedure: Fat pads of periovarian white adipose tissue (WAT) were isolated from female mice. One gram of the isolated fat pad was digested with 2 mg/ml of collagenase type VIII (Sigma) in 4 ml Dulbecco's modified Eagle's medium (DMEM) at 37° C. for 1 hour. Then, the digested tissues were centrifuged at 200×g for 5 minutes at 4° C. The supernatant, which contains mature adipocytes, was collected for RNA isolation. The cell pellet, the stromal-vascular fraction (SVF), consisted of mesenchynal cells (adipoblasts) and immature adipocytes (adipocyte precursors and postadipocytes) (Van, The adipocyte precusor cell. In: New perspectives in adipose tissue:structure, function, and development. Butterworths, Borough Green, England, chapt. 15, 353-382, 1985). The SVFs were collected for RNA isolation or re-suspended for cell culture in DMEM containing 10% fetal calf serum and antibiotics. SVF cells were plated at a concentration of 10^5 cells per glass cover slide (12 mm in diameter) and maintained at 37° C. in 5% humidified carbon dioxide. The cultured cells then underwent whole-cell patch recording in 5 days. […]
To determine whether WAT-expressed ASIC3 is functional, we applied whole-cell patch recording to examine the acid-evoked currents in cultured SVF cells isolated from mice 8 to 10 weeks old. […]

aging ASIC3+/+ mice [1] = assay: Glucose tolerance test (GTT) with ASIC3 blockers in aging mice; format: in vivo; conditions: salicylic acid 14 mg/kg or APETx2 0.23 mg/kg injected intraperitoneally with glucose 1.5 mg/g after overnight fast
Procedure: (§1) ASIC3−/− mice were generated as described in Chen et al., Proc. Natl. Acad. Sci. USA 99, 8992-8997, 2002. Congenic 129 mice were derived from breeding ASIC3 chimera with female 129S2/SvPasCrl wild type mice. All mice were raised in a 12:12-h light-dark cycle at 25° C. and 40% to 70% humidity. All experiments involved use of female mice in different age groups. The animals were bred in a specific pathogen-free facility and cared for in accordance with the Guide for the Use of Laboratory Animals (National Academy Press, Washington D.C.). The experimental protocol was approved by the animal use committee of Academia Sinica.
(§2) Mice of 9, 16, or 25 weeks old were tested for glucose tolerance (GTT) and those of 18 or 27 weeks old for insulin tolerance (ITT). For GTT, the mice fasted overnight then were injected with glucose intraperitoneally at 1.5 mg/g body weight. For ITT, the mice were given free access to food and injected with insulin intraperitoneally at 0.5 mU/g body weight. The glucose levels were measured in blood withdrawn from the tail vein. To study effects of ASIC3 blockers, salicylic acid (14 mg/kg) or APETx2 (0.23 mg/kg) were injected with glucose or insulin intraperitoneally.
(§3) To test whether ASIC3 selective blockers could reverse age-dependent glucose intolerance and insulin resistance, we tested the effects of salicylic acid and APETx2 in the aging mouse groups. […]

IKKβ = target: T2, IKKβ (Mus musculus, UniProt O88351); conditions: salicylate 120 mg/kg/day, continual treatment, rodents; cited from earlier work
T2 construct: host or cells: rodents (in vivo)
T2 sequence (O88351 1-757): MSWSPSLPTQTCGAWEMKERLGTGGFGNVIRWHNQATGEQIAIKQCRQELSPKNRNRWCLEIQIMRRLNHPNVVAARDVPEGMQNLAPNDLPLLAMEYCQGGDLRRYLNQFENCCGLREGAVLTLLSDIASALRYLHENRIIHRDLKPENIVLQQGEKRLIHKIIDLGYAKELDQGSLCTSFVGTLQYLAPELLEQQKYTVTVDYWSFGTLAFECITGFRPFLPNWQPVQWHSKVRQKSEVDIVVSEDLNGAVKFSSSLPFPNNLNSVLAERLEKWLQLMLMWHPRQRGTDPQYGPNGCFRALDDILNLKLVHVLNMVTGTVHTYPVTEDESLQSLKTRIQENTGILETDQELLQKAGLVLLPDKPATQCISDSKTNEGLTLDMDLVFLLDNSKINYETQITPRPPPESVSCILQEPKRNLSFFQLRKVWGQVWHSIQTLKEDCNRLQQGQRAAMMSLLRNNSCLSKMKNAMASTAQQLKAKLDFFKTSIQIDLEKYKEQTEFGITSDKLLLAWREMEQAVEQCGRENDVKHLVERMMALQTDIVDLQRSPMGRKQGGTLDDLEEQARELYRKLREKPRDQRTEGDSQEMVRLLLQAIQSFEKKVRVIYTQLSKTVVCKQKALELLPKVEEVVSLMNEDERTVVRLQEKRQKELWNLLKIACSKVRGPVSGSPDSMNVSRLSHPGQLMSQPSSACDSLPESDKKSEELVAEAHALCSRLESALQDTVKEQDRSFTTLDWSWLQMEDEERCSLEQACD

rodents = conditions: salicylate 120 mg/kg/day, continual treatment; cited from earlier work
aging ASIC3+/+ mice [2] = assay: Insulin tolerance test (ITT) with ASIC3 blockers in aging mice; format: in vivo; conditions: salicylic acid 14 mg/kg or APETx2 0.23 mg/kg injected intraperitoneally with insulin 0.5 mU/g
Procedure: as §1, §2, §3

Row | Molecule | sensitivity of acid-induced inward currents to blocker (WAT-expressed ASIC3) | effect on age-dependent glucose tolerance (GTT) (aging ASIC3+/+ mice [1]) | effect on IKKβ activity (IKKβ) | effect on obesity- and diet-induced insulin resistance (rodents) | effect on insulin tolerance test / insulin sensitivity (ITT) (aging ASIC3+/+ mice [2])
1 | O=C(O)c1ccccc1O [salicylic acid] | sensitive | reverse in part the age-dependent effect of glucose tolerance | disrupted IKKβ activity | reversed obesity- and diet-induced insulin resistance | not affect insulin tolerance test
2 | APETx2 | sensitive | effectively reverse the age-dependent effect of glucose tolerance |  |  | significantly enhance the insulin sensitivity
